{"source": "patent US20230143612A1", "about": "(Arbutus Biopharma Corporation, priority 2020, published 2023)"}
{"target": "PD-L1 His protein / PD-1 Fc protein (Homo sapiens, UniProt Q9NZQ7)", "sequence (Q9NZQ7 19-238 limits assumed)": "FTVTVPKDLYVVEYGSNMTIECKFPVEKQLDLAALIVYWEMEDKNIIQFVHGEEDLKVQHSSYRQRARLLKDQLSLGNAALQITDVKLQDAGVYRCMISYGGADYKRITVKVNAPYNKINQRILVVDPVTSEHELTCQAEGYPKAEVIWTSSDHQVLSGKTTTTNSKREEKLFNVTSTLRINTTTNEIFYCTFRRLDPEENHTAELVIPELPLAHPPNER", "experiment": "HTRF Assay (PD-1/PD-L1 interaction)", "type": "binding", "conditions": "PD-L1 His 6 nM, PD-1 Fc 6 nM", "summary_of_the_method": "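HTRF: PD-L1 His (6 nM final), compound (3-fold dilutions, 20 μM to 0.001 μM final) and PD-1 Fc (6 nM final) preincubated 15 min at room temperature. Anti-human IgG-XL665 and anti-6HIS Tb cryptate (mixed at 6.7 nM and 0.35 nM) then added for 1 h at room temperature before reading.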", "units": {"IC50": "nM"}}
{"smiles": "Cc1c(-c2ccn3c(=O)c(CNC[C@@H]4CCC(=O)N4)cnc3c2)cccc1-c1cccc(-c2ccc3c(c2)CCC3NC[C@@H]2CCC(=O)N2)c1Cl", "note": "(stereo partly drawn) [Example 76, 8-(2′-Chloro-2-methyl-3′-(1-((((S)-5-oxopyrrolidin-2-yl)methyl)amino)-2,3-dihydro-1H-inden-5-yl)-[1,1′-biphenyl]-3-yl)-3-(((((S)-5-oxopyrrolidin-2-yl)methyl)amino)methyl)-4H-pyrido[1,2-a]pyrimidin-4-one]", "IC50": 3.4}
{"smiles": "COc1nc(-c2cccc(-c3cccc(-c4cc5c(=O)n(C)c(CNCCC(F)(F)F)nn5c4)c3Cl)c2Cl)ccc1CNC[C@@H]1CCC(=O)N1", "note": "[Example 406, (S)-6-(2,2′-Dichloro-3′-(6-methoxy-5-((((5-oxopyrrolidin-2-yl)methyl)amino)methyl)pyridin-2-yl)-[1,1′-biphenyl]-3-yl)-3-methyl-2-(((3,3,3-trifluoropropyl)amino)methyl)pyrrolo[2,1-f][1,2,4]triazin-4(3H)-one]", "IC50": 33}
{"smiles": "Cc1c(COc2cc(OCc3cncc(C#N)c3)c(CNC[C@@H]3CCC(=O)N3)cc2Cl)cccc1-c1cccc(-c2ccn3c(=O)c(CNC[C@@H]4CCC(=O)N4)cnc3c2)c1C", "note": "[Example 12, 5-((4-Chloro-5-((2,2′-dimethyl-3′-(4-oxo-3-(((((S)-5-oxopyrrolidin-2-yl)methyl)amino)methyl)-4H-pyrido[1,2-a]pyrimidin-8-yl)-[1,1′-biphenyl]-3-yl)methoxy)-2-(((((S)-5-oxopyrrolidin-2-yl)methyl)amino)methyl)phenoxy)methyl)nicotinonitrile]", "IC50": 0.3}
{"smiles": "COc1nc(-c2cccc(-c3cccc(-c4ccn5c(=O)c(CNCC6CC(F)(F)C(=O)N6)cnc5c4)c3Cl)c2Cl)ccc1CNC[C@@H]1CCC(=O)N1", "note": "(mixture of isomers) [Example 253, 8-[2-Chloro-3-[2-chloro-3-[6-methoxy-5-[[[(2S)-5-oxopyrrolidin-2-yl]methylamino]methyl]-2-pyridyl]phenyl]phenyl]-3-[[(4,4-difluoro-5-oxo-pyrrolidin-2-yl)methylamino]methyl]pyrido[1,2-a]pyrimidin-4-one]", "IC50": 5.7}
{"smiles": "COc1cc(-c2cccc(-c3cccc(-c4ccn5c(=O)c(CNC[C@@H]6CCC(=O)N6)cnc5c4)c3Cl)c2Cl)nc(Cl)c1CNC[C@@H]1CCC(=O)N1", "note": "[Example 431, 8-(2,2′-Dichloro-3′-(6-chloro-4-methoxy-5-(((((S)-5-oxopyrrolidin-2-yl)methyl)-amino)-methyl)pyridin-2-yl)-[1,1′-biphenyl]-3-yl)-3-(((((S)-5-oxopyrrolidin-2-yl)methyl)amino)methyl)-4H-pyrido[1,2-a]pyrimidin-4-one]", "IC50": 180}
{"smiles": "CNCCCN(C)Cc1ccc(-c2cccc(-c3cccc(-c4ccn5c(=O)c(CN(C)CCNC)cnc5c4)c3Cl)c2Cl)nc1OC", "note": "[Example 276, 8-(2,2′-dichloro-3′-(6-methoxy-5-((methyl(3-(methylamino)propyl)amino)methyl)pyridin-2-yl)-[1,1′-biphenyl]-3-yl)-3-((methyl(2-(methylamino)ethyl)amino)methyl)-4H-pyrido[1,2-a]pyrimidin-4-one]", "IC50": 90}
{"smiles": "COc1nc(-c2cccc(-c3cccc(-c4ccc5nc(CN(C)CCO)cn5n4)c3Cl)c2Cl)ccc1CN(C)CCO", "note": "[Example 339, 2-[[6-[2-Chloro-3-[2-chloro-3-[2-[[2-hydroxyethyl(methyl)amino]methyl]imidazo[1,2-b]pyridazin-6-yl]phenyl]phenyl]-2-methoxy-3-pyridyl]methyl-methyl-amino]etanol]", "IC50": 26}
{"smiles": "COc1nc(-c2cccc(-c3cccc(-c4ccn5c(=O)c(CNCCC(=O)O)cnc5c4)c3Cl)c2Cl)ccc1CNC[C@@H]1CCC(=O)N1", "note": "[Example 182, (S)-3-(((8-(2,2′-Dichloro-3′-(6-methoxy-5-((((5-oxopyrrolidin-2-yl)methyl)amino)methyl)pyridin-2-yl)-[1,1′-biphenyl]-3-yl)-4-oxo-4H-pyrido[1,2-a]pyrimidin-3-yl)methyl)amino)propanoic acid]", "IC50": 0.1}
{"smiles": "COc1nc(-c2cccc(-c3cccc(-c4ccn5c(=O)c(CNCC(F)F)cnc5c4)c3Cl)c2Cl)ccc1CNC[C@@H]1CCC(=O)N1", "note": "[Example 297, 8-[2-Chloro-3-[2-chloro-3-[6-methoxy-5-[[[(2S)-5-oxopyrrolidin-2-yl]methylamino]methyl]-2-pyridyl]phenyl]phenyl]-3-[(2,2-difluoroethylamino)methyl]pyrido[1,2-a]pyrimidin-4-one]", "IC50": 320}
{"smiles": "COc1nc(-c2cccc(-c3cccc(-c4cc5c(=O)n(C)c(CNC[C@H](C)O)nn5c4)c3Cl)c2Cl)ccc1CNC[C@@H]1CCC(=O)N1", "note": "[Example 350, 6-(2,2′-Dichloro-3′-(6-methoxy-5-(((((S)-5-oxopyrrolidin-2-yl)methyl)amino)methyl)pyridin-2-yl)-[1,1′-biphenyl]-3-yl)-2-((((S)-2-hydroxypropyl)amino)methyl)-3-methylpyrrolo[2,1-f][1,2,4]triazin-4(3H)-one]", "IC50": 0.1}
{"smiles": "COc1nc(-c2cccc(-c3cccc(-c4cc5c(=O)n(C)c(CN6CC(C)(O)C6)nn5c4)c3Cl)c2Cl)ccc1CNC[C@@H]1CCC(=O)N1", "note": "[Example 469, 6-[2-Chloro-3-[2-chloro-3-[6-methoxy-5-[[[(2S)-5-oxopyrrolidin-2-yl]methylamino]methyl]-2-pyridyl]phenyl]phenyl]-2-[(3-hydroxy-3-methyl-azetidin-1-yl)methyl]-3-methyl-pyrrolo[2,1-f][1,2,4]triazin-4-one]", "IC50": 5.9}
{"smiles": "COc1nc(-c2cccc(-c3cccc(-c4ccn5c(=O)c(CNC[C@@H]6CCC(=O)N6)cnc5c4)c3Cl)c2Cl)ccc1CNC[C@@H]1CCC(=O)N1", "note": "[Example 33, 8-(2,2′-Dichloro-3′-(6-methoxy-5-(((((S)-5-oxopyrrolidin-2-yl)methyl)amino)methyl)pyridin-2-yl)-[1,1′-biphenyl]-3-yl)-3-(((((S)-5-oxopyrrolidin-2-yl)methyl)amino)methyl)-4H-pyrido[1,2-a]pyrimidin-4-one]", "IC50": 2.7}
{"smiles": "COc1nc(-c2cccc(-c3cccc(-c4ccn5c(=O)c(CNCC6(CO)COC6)cnc5c4)c3Cl)c2Cl)ccc1CNC[C@@H]1CCC(=O)N1", "note": "[Example 244, (S)-8-(2,2′-dichloro-3′-(6-methoxy-5-((((5-oxopyrrolidin-2-yl)methyl)amino)-methyl)-pyridin-2-yl)-[1,1′-biphenyl]-3-yl)-3-((((3-(hydroxymethyl)oxetan-3-yl)-methyl)-amino)-methyl)-4H-pyrido[1,2-a]pyrimidin-4-one]", "IC50": 0.6}
{"smiles": "COc1nc(-c2cccc(-c3cccc(-c4ccn5c(=O)c(CNC[C@@H]6C[C@@H]6CO)cnc5c4)c3Cl)c2Cl)ccc1CNC[C@@H]1CCC(=O)N1", "note": "[Example 409, 8-(2,2′-Dichloro-3′-(6-methoxy-5-(((((S)-5-oxopyrrolidin-2-yl)methyl)amino)methyl)pyridin-2-yl)-[1,1′-biphenyl]-3-yl)-3-(((((1R,2S)-2-(hydroxymethyl)cyclopropyl)methyl)amino)methyl)-4H-pyrido[1,2-a]pyrimidin-4-one]", "IC50": 0.2}
{"smiles": "CNC(=O)C(C)(C)NCc1cc(=O)n2ccc(-c3cccc(-c4cccc(-c5ccc(CNC[C@@H]6CCC(=O)N6)c(OC)n5)c4Cl)c3Cl)cc2n1", "note": "[Example 341, (S)-2-(((8-(2,2′-Dichloro-3′-(6-methoxy-5-((((5-oxopyrrolidin-2-yl)methyl)amino)methyl)pyridin-2-yl)-[1,1′-biphenyl]-3-yl)-4-oxo-4H-pyrido[1,2-a]pyrimidin-2-yl)methyl)amino)-N,2-dimethylpropanamide]", "IC50": 0.1}
